Results published in ChEMBL document CHEMBL1201862, “PubChem BioAssay data set” (2004).
Calls of active or inactive are those of the source.

Columns and labels:
[1] = biological target: T1, Mannose-6-phosphate isomerase (Homo sapiens, UniProt P34949); assay: MPI enzyme activity inhibition – biochemical, fluorescence intensity, coupled assay, primary screen (AID 1209)
T1 sequence (P34949 whole entry): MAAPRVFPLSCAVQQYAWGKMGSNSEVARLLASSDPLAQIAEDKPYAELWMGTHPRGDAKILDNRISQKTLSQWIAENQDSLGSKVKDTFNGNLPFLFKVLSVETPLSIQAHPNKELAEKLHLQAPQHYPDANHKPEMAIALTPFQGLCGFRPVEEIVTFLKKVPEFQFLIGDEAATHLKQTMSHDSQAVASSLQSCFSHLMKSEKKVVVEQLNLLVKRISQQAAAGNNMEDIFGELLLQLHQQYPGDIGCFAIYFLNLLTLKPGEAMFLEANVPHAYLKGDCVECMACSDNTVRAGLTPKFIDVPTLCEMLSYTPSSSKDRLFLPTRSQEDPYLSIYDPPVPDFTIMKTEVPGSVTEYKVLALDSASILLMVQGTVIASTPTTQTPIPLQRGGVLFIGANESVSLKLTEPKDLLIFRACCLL

CHO-K1 = assay: (§1) Counterscreen for antagonists of the orexin 1 receptor (OX1R; HCRTR1): Homogeneous time resolved fluorescence (HTRF)-based cell-based dose response assay to identify antagonists of the parental CHO-K1 cell line. [Related pubchem assays (depositor defined):AID434989, AID435008, AID463079, AID485270, AID492963, AID492964, AID492965, AID493232, AID504699, AID504701]; assay type: functional; details: Cricetulus griseus
[2] = as §1, with “Fluorescence-based” for “Homogeneous time resolved fluorescence (HTRF)-based”, “cell-based high throughput” for “cell-based”, “CHO” for “CHO-K1”; assay type: functional
[3] = biological target: T2, Orexin/Hypocretin receptor type 1 (Homo sapiens, UniProt O43613); assay: Homogeneous Time Resolved Fluorescence (HTRF)-based cell-based high throughput dose response assay for antagonists of the orexin 1 receptor (OX1R; HCRTR1). [Related pubchem assays (depositor defined):AID434989, AID435008, AID463079, AID485270, AID492963, AID492964, AID492965, AID493232, AID504717, AID504718]; assay type: functional
T2 sequence (O43613 whole entry): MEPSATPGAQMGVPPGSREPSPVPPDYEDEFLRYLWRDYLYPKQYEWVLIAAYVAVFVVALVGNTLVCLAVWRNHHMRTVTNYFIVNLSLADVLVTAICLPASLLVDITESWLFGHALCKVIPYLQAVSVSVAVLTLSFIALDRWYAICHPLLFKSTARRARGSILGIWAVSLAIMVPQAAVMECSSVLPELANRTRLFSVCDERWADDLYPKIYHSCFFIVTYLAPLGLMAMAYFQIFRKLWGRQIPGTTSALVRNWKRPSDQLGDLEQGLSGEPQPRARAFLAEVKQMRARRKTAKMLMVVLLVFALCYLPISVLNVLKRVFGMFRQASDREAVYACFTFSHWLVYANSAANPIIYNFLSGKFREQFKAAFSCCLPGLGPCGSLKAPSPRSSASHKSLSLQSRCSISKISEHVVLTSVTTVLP

[4] = biological target: T2, Orexin/Hypocretin receptor type 1; assay: Fluorescence-based cell-based high throughput dose response assay for antagonists of the orexin 1 receptor (OX1R; HCRTR1). [Related pubchem assays (depositor defined):AID434989, AID435008, AID463079, AID485270, AID492963, AID492964, AID492965, AID493232, AID504717, AID504718]; assay type: functional
Orexin receptor type 2 [5] = biological target: T3, Orexin receptor type 2 (Homo sapiens, UniProt O43614); assay: Counterscreen assay for antagonists of the orexin 1 receptor (OX1R; HCRTR1): Fluorescence-based cell-based dose response assay for antagonists of the orexin 2 receptor (OX2R; HCRTR2), run by assay provider.; assay type: functional
T3 sequence (O43614 whole entry): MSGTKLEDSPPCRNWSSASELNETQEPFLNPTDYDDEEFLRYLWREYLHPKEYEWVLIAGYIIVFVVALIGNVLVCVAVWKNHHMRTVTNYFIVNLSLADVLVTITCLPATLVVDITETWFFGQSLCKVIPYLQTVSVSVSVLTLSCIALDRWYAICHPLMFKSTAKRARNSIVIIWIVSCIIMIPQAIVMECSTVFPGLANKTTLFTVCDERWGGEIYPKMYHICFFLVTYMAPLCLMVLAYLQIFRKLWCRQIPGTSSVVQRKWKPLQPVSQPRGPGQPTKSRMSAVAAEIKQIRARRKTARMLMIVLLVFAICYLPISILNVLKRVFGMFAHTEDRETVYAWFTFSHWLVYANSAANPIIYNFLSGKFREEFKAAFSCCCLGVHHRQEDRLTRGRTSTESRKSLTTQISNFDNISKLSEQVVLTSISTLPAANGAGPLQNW

Orexin receptor type 2 [6] = biological target: T3, Orexin receptor type 2; assay: Counterscreen assay for antagonists of the orexin 1 receptor (OX1R; HCRTR1): Homogeneous Time Resolved Fluorescence (HTRF)-based cell-based dose response assay for antagonists of the orexin 2 receptor (OX2R; HCRTR2), run by assay provider.; assay type: functional
[7] = biological target: Peroxisome proliferator-activated receptor gamma/Nuclear receptor corepressor 2 (Homo sapiens, UniProt P37231+Q9Y618); assay: Counterscreen for NR2E3 inverse agonists: TR-FRET-based biochemical high throughput dose response assay to identify inverse agonists of the interaction between peroxisome proliferator-activated receptor gamma (PPARg) and nuclear receptor co-repressor 2 (NCOR2).; assay type: functional
[8] = biological target: Photoreceptor-specific nuclear receptor (Homo sapiens, UniProt Q9Y5X4); assay: ligands suppressing NR2E3 nuclear receptor activity – biochemical, TR-FRET, dose response (AID 463256); assay type: functional
[9] = HGIII-sPLA2 enzyme inhibition potency – biochemical, QFRET, IC50, dose response (AID 743457);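 also: green fluorescence rise as the enzyme cleaves BODIPY PC-A2 in liposomes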
[10] = rise of 2N DNA cells, HeLa – IC50, dose response (AID 1117349); assay type: functional, cell-based
[11] = rise of 4N DNA cells, HeLa – IC50, dose response (AID 1117351); assay type: functional, cell-based
[12] = biological target: T1, Mannose-6-phosphate isomerase; assay: MPI inhibition at elevated mannose 6-phosphate – biochemical, fluorescence intensity, high mannose 6-phosphate, primary screen (AID 1220)
[13] = Luminescence Cell-Based Dose Retest to Confirm Inhibitors of Cancer Stem Cells. [Related pubchem assays (depositor defined):AID2717, AID2721]; assay type: functional; details: Homo sapiens
[14] = growth inhibition of yeast DHODH-expressing 3D7 parasites – SYBR Green, dry powder samples, dose response (AID 1159570); assay type: functional, cell-based;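 also: parasite growth measured after 72 hours of compound exposure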
[15] = toxicity to human HepG2 hepatoma cells – cell-based, plate reader, dry powder samples, cytotoxicity control, dose response (AID 1159569); assay type: functional;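 also: inhibitor potency with signal falling toward the positive control level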
[16] = P. falciparum Dd2 growth inhibitors, dose response, SYBR Green, cherry-picked samples (AID 1159567); assay type: functional, cell-based
[17] = Dd2 malaria parasite growth inhibition potency – SYBR Green, dry powder samples, dose response (AID 1159566); assay type: functional, cell-based;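 also: potency for growth inhibition with lower SYBR green DNA signal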
[18] = growth inhibition of PfATP4-mutant resistant parasites – NITD609-resistant line, SYBR Green, dry powder, dose response (AID 1159571); assay type: functional, cell-based;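 also: parasites synchronized at ring stage by sorbitol before testing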

Chain of Photoreceptor-specific nuclear receptor (Q9Y5X4 whole entry): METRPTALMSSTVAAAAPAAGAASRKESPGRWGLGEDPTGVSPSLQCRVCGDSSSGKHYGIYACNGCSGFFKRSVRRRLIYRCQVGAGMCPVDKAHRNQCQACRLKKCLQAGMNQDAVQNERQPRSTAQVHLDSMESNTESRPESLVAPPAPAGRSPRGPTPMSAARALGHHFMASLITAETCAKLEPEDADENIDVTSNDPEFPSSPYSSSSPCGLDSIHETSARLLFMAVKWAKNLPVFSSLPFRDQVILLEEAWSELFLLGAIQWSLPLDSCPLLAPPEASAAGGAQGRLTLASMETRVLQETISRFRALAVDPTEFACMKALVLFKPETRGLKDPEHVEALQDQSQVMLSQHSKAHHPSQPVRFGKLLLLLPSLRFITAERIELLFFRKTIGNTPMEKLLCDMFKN
Chain of Peroxisome proliferator-activated receptor gamma/Nuclear receptor corepressor 2 (P37231 whole entry): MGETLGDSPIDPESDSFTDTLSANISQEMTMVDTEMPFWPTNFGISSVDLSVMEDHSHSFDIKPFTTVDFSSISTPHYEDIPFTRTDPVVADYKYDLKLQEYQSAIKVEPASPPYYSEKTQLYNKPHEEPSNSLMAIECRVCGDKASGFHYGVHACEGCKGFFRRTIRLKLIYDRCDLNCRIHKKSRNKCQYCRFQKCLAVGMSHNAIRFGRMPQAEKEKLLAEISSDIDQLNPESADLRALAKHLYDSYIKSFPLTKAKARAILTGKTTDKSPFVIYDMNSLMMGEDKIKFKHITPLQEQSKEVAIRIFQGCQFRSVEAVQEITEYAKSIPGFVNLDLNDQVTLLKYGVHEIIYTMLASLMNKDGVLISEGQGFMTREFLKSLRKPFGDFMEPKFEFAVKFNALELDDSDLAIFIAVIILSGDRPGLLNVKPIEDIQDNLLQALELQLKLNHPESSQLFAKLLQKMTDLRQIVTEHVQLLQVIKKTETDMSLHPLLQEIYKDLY
Chain of Peroxisome proliferator-activated receptor gamma/Nuclear receptor corepressor 2 (Q9Y618 whole entry): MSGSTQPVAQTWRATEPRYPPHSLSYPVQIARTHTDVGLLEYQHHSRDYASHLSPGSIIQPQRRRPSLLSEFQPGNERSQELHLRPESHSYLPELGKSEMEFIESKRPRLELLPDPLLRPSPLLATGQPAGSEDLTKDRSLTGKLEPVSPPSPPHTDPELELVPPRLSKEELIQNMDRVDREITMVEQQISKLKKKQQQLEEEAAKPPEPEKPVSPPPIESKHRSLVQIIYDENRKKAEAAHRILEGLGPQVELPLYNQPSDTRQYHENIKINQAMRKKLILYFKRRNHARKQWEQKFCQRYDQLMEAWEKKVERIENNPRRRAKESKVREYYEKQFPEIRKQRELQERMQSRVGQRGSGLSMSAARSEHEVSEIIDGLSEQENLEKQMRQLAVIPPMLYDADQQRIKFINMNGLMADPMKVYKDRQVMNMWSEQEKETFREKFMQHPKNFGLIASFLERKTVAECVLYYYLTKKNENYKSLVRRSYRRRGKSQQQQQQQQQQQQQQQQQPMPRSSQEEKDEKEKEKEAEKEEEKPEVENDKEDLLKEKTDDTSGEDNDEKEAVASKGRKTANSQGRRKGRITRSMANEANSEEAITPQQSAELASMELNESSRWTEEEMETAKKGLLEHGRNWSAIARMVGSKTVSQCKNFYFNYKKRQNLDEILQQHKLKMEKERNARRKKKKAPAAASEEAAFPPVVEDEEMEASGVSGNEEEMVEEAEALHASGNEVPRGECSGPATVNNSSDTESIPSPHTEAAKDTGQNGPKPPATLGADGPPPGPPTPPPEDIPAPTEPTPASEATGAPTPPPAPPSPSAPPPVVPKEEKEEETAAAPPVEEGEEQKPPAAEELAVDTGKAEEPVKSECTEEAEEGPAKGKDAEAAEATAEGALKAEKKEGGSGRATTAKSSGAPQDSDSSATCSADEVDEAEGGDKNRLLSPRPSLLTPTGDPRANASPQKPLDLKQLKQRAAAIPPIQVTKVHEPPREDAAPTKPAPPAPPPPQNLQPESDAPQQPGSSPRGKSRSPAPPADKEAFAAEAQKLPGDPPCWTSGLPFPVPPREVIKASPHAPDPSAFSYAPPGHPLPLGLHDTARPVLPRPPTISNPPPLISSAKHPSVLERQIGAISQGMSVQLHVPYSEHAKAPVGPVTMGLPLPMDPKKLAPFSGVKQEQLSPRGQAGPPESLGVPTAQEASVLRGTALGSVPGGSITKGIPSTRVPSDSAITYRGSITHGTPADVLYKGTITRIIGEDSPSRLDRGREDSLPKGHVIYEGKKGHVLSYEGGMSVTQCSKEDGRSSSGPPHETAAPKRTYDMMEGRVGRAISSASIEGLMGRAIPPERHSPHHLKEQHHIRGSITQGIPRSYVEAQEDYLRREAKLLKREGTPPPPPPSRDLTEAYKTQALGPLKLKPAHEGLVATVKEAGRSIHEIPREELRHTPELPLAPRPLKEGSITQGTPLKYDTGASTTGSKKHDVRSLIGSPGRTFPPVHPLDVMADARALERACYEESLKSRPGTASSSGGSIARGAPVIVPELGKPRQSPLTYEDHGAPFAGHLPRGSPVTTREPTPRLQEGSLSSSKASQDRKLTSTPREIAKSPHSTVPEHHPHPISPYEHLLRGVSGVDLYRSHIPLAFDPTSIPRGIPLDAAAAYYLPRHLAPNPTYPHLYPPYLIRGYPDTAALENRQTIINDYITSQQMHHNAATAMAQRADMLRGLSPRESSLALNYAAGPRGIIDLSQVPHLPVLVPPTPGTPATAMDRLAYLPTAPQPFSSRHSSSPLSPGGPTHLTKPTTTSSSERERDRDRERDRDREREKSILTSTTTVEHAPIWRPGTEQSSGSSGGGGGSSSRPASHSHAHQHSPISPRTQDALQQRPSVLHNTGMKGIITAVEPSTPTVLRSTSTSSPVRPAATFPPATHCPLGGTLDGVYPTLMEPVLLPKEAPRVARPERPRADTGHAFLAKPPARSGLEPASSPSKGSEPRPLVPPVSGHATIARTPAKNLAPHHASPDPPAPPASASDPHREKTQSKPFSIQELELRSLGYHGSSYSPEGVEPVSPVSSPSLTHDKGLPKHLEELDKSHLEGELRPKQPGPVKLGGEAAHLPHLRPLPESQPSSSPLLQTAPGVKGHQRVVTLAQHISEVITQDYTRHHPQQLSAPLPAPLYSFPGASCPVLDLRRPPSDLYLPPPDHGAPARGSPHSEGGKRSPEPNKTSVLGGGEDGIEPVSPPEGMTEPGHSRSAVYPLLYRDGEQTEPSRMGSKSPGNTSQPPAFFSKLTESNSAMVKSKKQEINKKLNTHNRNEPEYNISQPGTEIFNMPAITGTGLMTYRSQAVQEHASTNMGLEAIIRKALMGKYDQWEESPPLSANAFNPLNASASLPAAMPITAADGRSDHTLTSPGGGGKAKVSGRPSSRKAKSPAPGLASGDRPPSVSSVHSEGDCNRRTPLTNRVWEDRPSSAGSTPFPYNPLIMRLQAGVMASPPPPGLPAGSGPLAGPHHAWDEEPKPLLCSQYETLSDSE

CCc1c(C)sc(N=C(S)Nc2nc(C)cc(C)n2)c1C(=O)OC
IC50 [1]: > 50 µM (not active) | IC50 (CHO-K1): > 66.2 µM (inactive) | IC50 [2]: > 49.8 µM (inactive) | IC50 [3]: 2.23 µM (active) | IC50 [4]: 4.29 µM (active) | IC50 (Orexin receptor type 2 [5]): 15 µM (inactive) | IC50 (Orexin receptor type 2 [6]): > 50 µM (inactive)

O=C(CSc1ccc(-c2cccs2)nn1)N1CCCCCC1
IC50 [7]: > 39.8 µM (not active) | IC50 [8]: 4.73 µM (active)

O=C(CNc1ccc(Cl)cc1)NNC(=S)NCc1ccccc1
IC50 [9]: > 122 µM (inactive)

O=C(NCCO)c1cc2ccccc2cc1O
IC50 [1]: > 50 µM (not active)

Cc1ccc(Nc2nccc(N(C)c3ccc4c(C)n(C)nc4c3)n2)cc1S(N)(=O)=O [PAZOPANIB]
IC50 [10]: > 10 µM (inactive) | IC50 [11]: > 10 µM (inactive)

CCOC(=O)N1CCN(CCC(=O)c2ccc(Cl)cc2)CC1
IC50 [12]: > 50 µM (not active) | AC50 [13]: 12 µM (active)

Cc1c(Cl)c(C(=O)NN=C(S)Nc2ccc(F)cc2)nn1C
IC50 [9]: > 122 µM (inactive)

CCCN(C)C[C@H]1Oc2ncc(C#Cc3ccc(F)cc3)cc2C(=O)N([C@@H](C)CO)C[C@H]1C
AC50 [14]: 2.14 µM (active) | AC50 [15]: 24.3 µM (active) | AC50 [16]: 2.37 µM (active) | AC50 [17]: 1.24 µM (active) | AC50 [18]: 1.23 µM (active)
